From patent US20230227547A1, “ANTIBODY-PAYLOAD CONJUGATES WITH ENHANCED DELIVERY DOMAIN AND USES THEREOF” (IPROGEN BIOTECH INC., priority 2019, published 2023)

Key:
T47D cells = test: Anti-HER2 mAb delivery efficiency using LL37-derived peptide constructs; type: cell-based, human; details: for Delivery efficiency: peptide conjugated to anti-HER2 mAb light chain, 100 nM Ab, Z-GFP (PEP#6, 35-43) or Goat anti-human IgG-AlexaFluor 488 (PEP#6, 47-94) fluorescence microscopy; for delivery enhancement (in words): peptide conjugated to anti-HER2 mAb
Protocol: LL37 and LL37-derived peptides were produced synthetically with two additional N-terminal glycine residues (e.g. as shown in SEQ ID NO:2 compared to SEQ ID NO: 1) to enable the sortase reaction. The LL37-derived peptides (PEP#35 to #43, SEQ ID NOs: 13-21) were all dissolved at 10 mg/ml in phosphate buffer saline (PBS) at room temperature, sterile-filtered, and stored at -20° C. freezer. PEP#48 (SEQ ID: 74), PEP#49 (SEQ ID No: 75), and PEP#60 (SEQ ID NO: 105) were dissolved in 20% (v/v) acetonitrile in PBS. PEP#47 (SEQ ID NO: 96), PEP#86 (SEQ ID NO: 78), PEP#98 (SEQ ID NO: 79), PEP#99 (SEQ ID NO: 80), PEP#102 (SEQ ID NO: 82), and PEP#104 (SEQ ID NO: 84) were dissolved in DMSO. PEP#50 (SEQ ID No: 76), PEP#51 (SEQ ID No: 97), PEP#55 (SEQ ID No: 77), PEP#58 (SEQ ID No: 103), PEP#59 (SEQ ID No: 104), PEP#61 (SEQ ID No: 106), PEP#62 (SEQ ID No: 107), PEP#63 (SEQ ID No: 108), PEP#64 (SEQ ID No: 109), PEP#66 (SEQ ID No: 110), and PEP#94 (SEQ ID No: 35) were all dissolved in PBS. […] The reaction was incubated inside a 37° C. incubator for 16 hours, and then EDTA (pH 7.5) was added to 10 mM in the reaction mixture to chelate calcium and stop the reaction.
Delivery assay: The following delivery assay method was used on the anti-HER2 mAbs conjugated to the PEP#6, #35, #36, #37, #38, #39, #40, #41, #42, and #43 described in Table 7. […] The plates were then removed from the incubator, and the culturing media was removed from the adherent cells. The adherent cells were washed gently with an equal volume of ice-cold PBS. Then, the PBS wash was replaced 250 µl of fresh PBS for fluorescence microscope imaging.
At the end of incubation, the adherent target cells were washed twice with ice-cold PBS, fixed with 2% (w/v) formaldehyde in PBS at room temperature for 15 minutes, and washed twice with PBS at room temperature. The fixed adherent target cells were then permeabilized with 0.05% (v/v) Tween-20 in PBS at room temperature for 15 minutes. The permeabilized cells were then incubated with 5% (v/v) FBS, 0.05% (v/v) Tween-20 in PBS at 37 degree Celsius incubator for 30 minutes. The secondary antibody, Goat anti-human IgG-AlexaFluor 488, was added to 5 ug/ml in 5% (v/v) FBS, 0.05% (v/v) Tween-20 in PBS, and incubated with the treated target cells at 37 degree Celsius incubator for 30 minutes. After incubation, the labelled cells were washed twice with PBS, and stored in storage buffer [5% (v/v) FBS in PBS] at 4 degree Celsius until fluorescence microscope imaging. The delivery of mAb and mAb-LL37-derived peptides were determined qualitatively by estimating the green fluorescence intensity emitted from the AlexFluor488-labelled secondary antibody bound to mAb or mAb-LL37-derived peptides.

LnCap = test: Delivery assay, Goat anti-human IgG-AlexaFluor 488 fluorescence microscopy, LnCap; type: cell-based; parameters: key to Delivery efficiency of mAb (i.e., mAb): +++: Strong Alexa Fluor 488 (cyan/green) fluorescent intensity; ++: Medium level of Alexa Fluor 488 (cyan/green) fluorescent intensity; +: Weak, but noticeable Alexa Fluor 488 (cyan/green) fluorescent intensity; -: No signal; details: Target cell LnCap; for Delivery enhancement: mAb-LL37 vs mAb
Protocol: (§1) Delivery assay. […] The culturing media containing the unbound antibodies were removed, and the MDA-MB-468 cells were washed with PBS. The adherent cells were treated with trypsin at 37 degree C for 1-2 minutes, neutralized in FACS buffer (2% v/v FBS, 2 mM EDTA, 0.05% w/v sodium azide in PBS), and transferred to FACS tubes on ice. The delivery of antibodies to cells was quantitated by measuring the red fluorescence intensity (i.e., PE-Texas Red color channel in the FACS detector) emitted fromZ-RFP bound to antibody. […] At the end of incubation, the adherent target cells were washed twice with ice-cold PBS, fixed with 2% (w/v) formaldehyde in PBS at room temperature for 15 minutes, and washed twice with PBS at room temperature. The fixed adherent target cells were then permeabilized with 0.05% (v/v) Tween-20 in PBS at room temperature for 15 minutes. The permeabilized cells were then incubated with 5% (v/v) FBS, 0.05% (v/v) Tween-20 in PBS at 37 degree Celsius incubator for 30 minutes. The secondary antibody, Goat anti-human IgG-AlexaFluor 488, was added to 5 ug/ml in 5% (v/v) FBS, 0.05% (v/v) Tween-20 in PBS, and incubated with the treated target cells at 37 degree Celsius incubator for 30 minutes. After incubation, the labelled cells were washed twice with PBS, and stored in storage buffer [5% (v/v) FBS in PBS] at 4 degree Celsius until fluorescence microscope imaging. The delivery of mAb and mAb-LL37 were determined qualitatively by estimating the green fluorescence intensity emitted from the AlexFluor488-labelled secondary antibody bound to mAb or mAb-LL37. […] However, Ramos [NT] No. ATCC CRL-1596, lot#70016960) was grown in suspension culture (i.e., in contrast to adherent cells), and the modification to the methods involves simply harvesting cells from the shaking culture flask for incubation with antibodies (or LL37-linked antibodies), and frequently pelleting down the target cells in the V-bottom 96-well polypropylene plate for downstream processes of PBS washing, fixing, permeabilizing, blocking, and the secondary antibody labelling. The secondary anti-human IgG-AlexaFluor488 labelled target cells were washed and resuspended in PBS, and transferred to the clear polystyrene 48-well plates for fluorescence microscope imaging.

RT4v6 = test: Delivery assay, Goat anti-human IgG-AlexaFluor 488 fluorescence microscopy, RT4v6; type: cell-based; parameters: key to Delivery efficiency of mAb (i.e., mAb): +++: Strong Alexa Fluor 488 (cyan/green) fluorescent intensity; ++: Medium level of Alexa Fluor 488 (cyan/green) fluorescent intensity; +: Weak, but noticeable Alexa Fluor 488 (cyan/green) fluorescent intensity; -: No signal; details: Target cell RT4v6; for Delivery enhancement: mAb-LL37 vs mAb
Protocol: as §1, with “No. ATCC CRL-1596, lot#70016960) was grown in suspension culture (i.e., in contrast to adherent cells), and the modification to the methods involves simply harvesting cells from the shaking culture flask for incubation with antibodies (or LL37-linked antibodies), and frequently pelleting down the target cells in the V-bottom 96-well polypropylene plate for downstream processes of PBS washing, fixing, permeabilizing, blocking, and the secondary antibody labelling.” left out

OVCAR3 = test: Delivery assay, Goat anti-human IgG-AlexaFluor 488 fluorescence microscopy, OVCAR3; type: cell-based; parameters: key to Delivery efficiency of mAb (i.e., mAb): +++: Strong Alexa Fluor 488 (cyan/green) fluorescent intensity; ++: Medium level of Alexa Fluor 488 (cyan/green) fluorescent intensity; +: Weak, but noticeable Alexa Fluor 488 (cyan/green) fluorescent intensity; -: No signal; details: Target cell OVCAR3; for Delivery enhancement: mAb-LL37 vs mAb
Protocol: as §1, with “No. ATCC CRL-1596, lot#70016960) was grown in suspension culture (i.e., in contrast to adherent cells), and the modification to the methods involves simply harvesting cells from the shaking culture flask for incubation with antibodies (or LL37-linked antibodies), and frequently pelleting down the target cells in the V-bottom 96-well polypropylene plate for downstream processes of PBS washing, fixing, permeabilizing, blocking, and the secondary antibody labelling.” left out

CD20-positive RL cells = test: Delivery assay, Z-RFP FACS, RL cells; type: cell-based, human; details: 0.5 nM, 5 nM, 50 nM; 30 minutes
Protocol: For FIG. 30 Panel D, Ofatumumab-LL37 was made from Ofatumumab (SEQ ID NOs: 40 and 41) in a sortase-catalyzed reaction to GG-LL37 peptide (SEQ ID NO: 2), and purified on Protein A chromatography. For cell delivery assay, Ofatumumab/Ofatumumab-LL37 and equimolar equimolar number of Z-RFP were added to RL cells at described final concentration (i.e., 0.5 nM, 5 nM, and 50 nM) and incubated for 30 minutes. The liquid suspension culture was gently spun in a microcentrifuge at 2000 rpm for 4 minutes, and the clear supernatant was removed, and the cell pellet was washed in PBS and resuspended in FACS buffer (1XPBS, 2% FBS, 1 mM EDTA, 0.02% sodium azide) for analysis by FACS (Texas Red channel).

Ramos = test: Delivery assay, Goat anti-human IgG-AlexaFluor 488 fluorescence microscopy, Ramos; type: cell-based; parameters: key to Delivery efficiency of mAb (i.e., mAb): +++: Strong Alexa Fluor 488 (cyan/green) fluorescent intensity; ++: Medium level of Alexa Fluor 488 (cyan/green) fluorescent intensity; +: Weak, but noticeable Alexa Fluor 488 (cyan/green) fluorescent intensity; -: No signal
Protocol: Delivery assay. […] The culturing media containing the unbound antibodies were removed, and the MDA-MB-468 cells were washed with PBS. The adherent cells were treated with trypsin at 37 degree C for 1-2 minutes, neutralized in FACS buffer (2% v/v FBS, 2 mM EDTA, 0.05% w/v sodium azide in PBS), and transferred to FACS tubes on ice. The delivery of antibodies to cells was quantitated by measuring the red fluorescence intensity (i.e., PE-Texas Red color channel in the FACS detector) emitted fromZ-RFP bound to antibody. […] At the end of incubation, the adherent target cells were washed twice with ice-cold PBS, fixed with 2% (w/v) formaldehyde in PBS at room temperature for 15 minutes, and washed twice with PBS at room temperature. […] After incubation, the labelled cells were washed twice with PBS, and stored in storage buffer [5% (v/v) FBS in PBS] at 4 degree Celsius until fluorescence microscope imaging. The delivery of mAb and mAb-LL37 were determined qualitatively by estimating the green fluorescence intensity emitted from the AlexFluor488-labelled secondary antibody bound to mAb or mAb-LL37. […] The secondary anti-human IgG-AlexaFluor488 labelled target cells were washed and resuspended in PBS, and transferred to the clear polystyrene 48-well plates for fluorescence microscope imaging.

Substance: KRIVQRIKDFL [PEP#60]
- Delivery efficiency (T47D cells): +

Substance: KSKEKIGKEFKRIVQ [PEP#42]
- Delivery efficiency (T47D cells): +

Substance: LLGDFFRASKEKIGKEFAAIVQAIKDFLANLVPATES [PEP#50]
- delivery enhancement (in words) (T47D cells): decrease in, but not abrogation of, delivery enhancement
- Delivery efficiency (T47D cells): +

Substance: LLGDFFRKSKEKIGKEFKRIVQRIK [PEP#35]
- Delivery efficiency (T47D cells): +

Substance: LLGDFFRKSKEKIGKEFKRIVQRIKDFLRNLVPRTESC [PEP#94]
- Delivery efficiency (T47D cells): +++ (Same as LL37)

Substance: LLGDFFRQSKEKIGKEFQQIVQQIKDFLQNLVPQTES [PEP#49]
- delivery enhancement (in words) (T47D cells): abolished the antibody delivery enhancement

Substance: Labetuzumab [Anti-CEACAM5, Labetuzumab]
- Delivery efficiency of mAb (i.e., mAb) (LnCap; 100 nM, 3 hours): +
- Delivery enhancement (LnCap): YES
- Delivery enhancement (LnCap; listed as labetuzumab): significantly increases the delivery

Substance: Lifastuzumab [Anti-NaPi2b, Lifastuzumab]
- Delivery enhancement (RT4v6): significantly increases the delivery
- Delivery efficiency of mAb (i.e., mAb) (OVCAR3; 100 nM, 3 hours): +
- Delivery enhancement (OVCAR3): YES
- Delivery enhancement (OVCAR3; listed as lifastuzumab): significantly increases the delivery

Substance: MMWLL [PEP#47, reference compound]
- delivery enhancement (in words) (T47D cells): confirmed to not enhance antibody delivery to target cells alone

Substance: Ofatumumab-LL37
- targeted delivery (in words) (CD20-positive RL cells): more efficient than anti-CD20 mAb (i.e., Ofatumumab) at targeted delivery

Substance: Rituximab [Anti-CD20, Rituximab]
- Delivery efficiency of mAb (i.e., mAb) (Ramos; Target cell Ramos (suspension culture)): ++
- Delivery enhancement (Ramos; Target cell Ramos, mAb-LL37 vs mAb): YES

Substance: Vofatamab [Anti-FGFR3, Vofatamab]
- Delivery efficiency of mAb (i.e., mAb) (RT4v6; 100 nM, 3 hours): +
- Delivery enhancement (RT4v6): YES
